The values below come from patent US20080207641A1 (Synta Pharmaceuticals Corp., priority 2006, published 2008).

Series [1] in a line: Pharmacokinetic profile / oral bioavailability in male SD rats. The series is classed as in vivo. The note with it: rat; for AUC(0-inf) / AUC(0-t) / Cmax / Tmax / half-life: plasma. As for the experimental part:
The pharmacokinetic profile of 3-fluoro-N-(4-(4-methyl-1-(thiazol-2-yl)-1,2,5,6-tetrahydro pyridin-3-yl)phenyl)isonicotinamide dihydrochloride was studied in male SD rats. Rats were bled at 5 min (IV only), 15 min, 30 min, 1 h, 2 h, 4 h, 6 h, 8 h and 24 h. Samples were prepared by mixing 50 μL of plasma, 5 μL, DMSO, and 250 μL of ACN, followed by shaking for 5 min, centrifuging at 4400 rpm for 15 min at 8° C. 225 μL of supernatant was vacuum dried, reconstituted with 180 μL of 20% ACN (10 mM NH4OAc), shaken for ˜2 min and transferred to 96MT plate. Samples were analyzed by HPLC, Phenomenex Onyx Monolithic C18, 4.6×100 mm column eluted with 30-95% ACN (10 mM NH4OAc) gradient. Detection was at 280 nm.

Series [2] in a line: Solubility of salts (water solubility). In kind it is physicochemical. The note with it: for Water Solubility: salts of the parent compound.
The subject of another series is IL-2 production. In words: Inhibition of IL-2 production in PHA-activated Jurkat cells (ELISA). The series is classed as cell-based. The note with it: Homo sapiens, 20 h, PHA 2.5 μg/mL, 20 hours at 37° C., IL-2 ELISA. The method, then:
Jurkat cells were placed in a 96 well plate (0.5 million cells per well in 1% FBS medium) then a test compound of this invention was added at different concentrations. After 10 minutes, the cells were activated with PHA (final concentration 2.5 μg/mL) and incubated for 20 hours at 37° C. under CO2. The final volume was 200 μL. Following incubation, the cells were centrifuged and the supernatants collected and stored at −70° C. prior to assaying for IL-2 production. A commercial ELISA kit (IL-2 Eli-pair, Diaclone Research, Besancon, France) was used to detect production of IL-2, from which dose response curves were obtained. The IC50 value was calculated as the concentration at which 50% of maximum IL-2 production after stimulation was inhibited versus a non-stimulation control.
For orientation: ELISA stands for enzyme-linked immunosorbent assay.

Series [3] is described as follows: Solubility in simulated gastric fluids. In kind it is physicochemical. An excerpt: Solubility in Simulated Gastric Fluids

Converted amounts (≈) assume the structure as drawn.

As a reminder, the bioavailability is the share of a dose that reaches the circulation, judged against a reference dose that is usually intravenous. As a reminder, the AUC(0-inf) is total exposure, with the tail of the curve extrapolated. Read a high AUC(0-inf) as more exposure. A word on the AUC(0-t): it is exposure summed from dosing to a finite time, without extrapolation to infinity. Higher therefore signals high exposure. A word on the Cmax: it is the maximum level reached in the sampled fluid or tissue. One may read the Tmax as the time from dosing to the highest level. As a reminder, the half-life is the time needed for the level to fall by half in the phase considered. Read a low half-life as rapid decline. What is called solubility is the concentration that dissolves in the medium under given conditions. As to `CC1=C(c2ccc(NC(=O)c3ccncc3F)cc2)CN(c2nccs2)CC1.Cl.Cl` [3-fluoro-N-(4-(4-methyl-1-(thiazol-2-yl)-1,2,5,6-tetrahydropyridin-3-yl)phenyl)isonicotinamide dihydrochloride], the bioavailability in series [1] (in vivo, PO, 50 mg/kg, 0.5% MC, read-out: % F (oral bioavailability)) was found to be 93.4%. Moreover, in series [1] (IV, 5 mg/kg, DRD formulation), the AUC(0-inf) stood at 37.6 µM·h, the AUC(0-t) was 37.5 µM·h, the peak level (Cmax) was 34.6 µM and the Tmax stood at 0.083 h. In series [1] (IV, 5 mg/kg, DRD formulation), this compound showed a half-life of 1 h. Also, in series [1] (PO, 50 mg/kg, 0.5% MC), the area under the curve AUC(0-inf) was found to be 351 µM·h, the AUC(0-t) was found to be 348 µM·h, the Cmax is 43.5 µM and the Tmax is 2 h. The half-life in series [1] (PO, 50 mg/kg, 0.5% MC) was 3.2 h. Moreover, the solubility in series [2] (dihydrochloride salt) is > 12000 µg/mL.
Turning to `CC1=C(c2ccc(NC(=O)c3ccncc3F)cc2)CN(c2nccs2)CC1` [Citrate, 3-fluoro-N-(4-(4-methyl-1-(thiazol-2-yl)-1,2,5,6-tetrahydropyridin-3-yl)phenyl)isonicotinamide], the “Water Solubility” value in series [2] worked out at 1190 µg/mL.
The IC50 is the concentration needed to halve the response being measured. Higher therefore signals a need for much substance. The compound `CC1=C(c2cnc(NC(=O)c3c(F)cccc3F)cn2)CN(c2ncco2)CC1` [Compound 30, 2,6-difluoro-N-(5-(4-methyl-1-(oxazol-2-yl)-1,2,5,6-tetrahydropyridin-3-yl)pyrazin-2-yl)benzamide] yielded an IC50 in the series on IL-2 production of 35 to 75 nM. The solubility in series [3] is recorded as 150 µM (≈ 59.6 µg/mL).
Regarding `CC1=C(c2cnc(NC(=O)c3ccccc3F)cn2)CN(c2nccs2)CC1` [Compound 31, 2-fluoro-N-(5-(4-methyl-1-(thiazol-2-yl)-1,2,5,6-tetrahydropyridin-3-yl)pyrazin-2-yl)benzamide], in the series with IL-2 production, the IC50 lay within 35 to 75 nM. For the same compound, the solubility in series [3] (simulated gastric fluid) is 25 µM (≈ 9.89 µg/mL).
Consider `CC1=C(c2ccc(NC(=O)c3c(F)cncc3F)cc2)CN(c2nccs2)CC1` [Compound 32, 3,5-difluoro-N-(4-(4-methyl-1-(thiazol-2-yl)-1,2,5,6-tetrahydropyridin-3-yl)phenyl)isonicotinamide], for which the IC50 in the series with IL-2 production was ≤ 35 nM. The compound also displayed a solubility in series [3] of 150 µM (≈ 61.9 µg/mL).
`CC1=C(c2cnc(NC(=O)c3ccccc3F)cn2)CN(c2nnn(C)n2)CC1` [Compound 33, 2-fluoro-N-(5-(4-methyl-1-(2-methyl-2H-tetrazol-5-yl)-1,2,5,6-tetrahydropyridin-3-yl)pyrazin-2-yl)benzamide] showed an IC50 in the series with IL-2 production of 75 to 150 nM. Besides, in series [3], the solubility was 150 µM (≈ 59.2 µg/mL).
Consider `CC1=C(c2ccc(NC(=O)c3ccncc3F)cc2)CN(c2nccs2)CC1` [Compound H2SO4, 3-fluoro-N-(4-(4-methyl-1-(thiazol-2-yl)-1,2,5,6-tetrahydropyridin-3-yl)phenyl)isonicotinamide], for which the “Water Solubility” value in series [2] stood at 12690 µg/mL.
As to `CC1=C(c2ccc(NC(=O)c3ccncc3F)cc2)CN(c2nccs2)CC1` [HBr, 3-fluoro-N-(4-(4-methyl-1-(thiazol-2-yl)-1,2,5,6-tetrahydropyridin-3-yl)phenyl)isonicotinamide], the “Water Solubility” value in series [2] turned out to be 11560 µg/mL.
On the same count and under the same terms, the value for `CC1=C(c2ccc(NC(=O)c3ccncc3F)cc2)CN(c2nccs2)CC1` [Succinate, 3-fluoro-N-(4-(4-methyl-1-(thiazol-2-yl)-1,2,5,6-tetrahydropyridin-3-yl)phenyl)isonicotinamide] was 360 µg/mL.
The same measure, in the same setting: the value for `CC1=C(c2ccc(NC(=O)c3ccncc3F)cc2)CN(c2nccs2)CC1` [Tartrate, 3-fluoro-N-(4-(4-methyl-1-(thiazol-2-yl)-1,2,5,6-tetrahydropyridin-3-yl)phenyl)isonicotinamide] was 1340 µg/mL.
